Assay results reported in patent publication US8481521B2, “Methods of treating cell proliferative disorders” (Rigel Pharmaceuticals, Inc., priority 2005, dated 2013).
Where “and” joins values, the source holds several entries; their conditions need not be identical. Equal entries are not always repeated. Where two headings read alike, the source gives them in different places.

System: MV4-11 human acute myeloid leukemia cells
Type: in vivo
Details: for Hazard ratio: 40 mg/kg PO bid vs vehicle; for % Reduction from Vehicle Control, Bone Marrow / % Reduction from Vehicle Control, Peripheral blood: 40 mg/kg PO, bid daily
Procedure: At the end of the acclimatization period for the animals (>3 weeks in this study), mice were pretreated with sterile filtered (using a […] syringe filter) Cyclophosphamide prepared in 0.9% sterile saline (Sigma, St Louis, Mo.) by intraperitoneal injection of 150 mg/kg/day for 2 days followed by a rest period of 72 hours prior to intravenous (i.v.) injection of leukemia cells via the lateral tail vein, as described below.
On day 0 of the study, mice were inoculated once by intravenous tail vein injection of 5 or 10 million human MV4-11 leukemia cells resuspended in 100 microliters of fresh media as outlined in Table 1.
After mice were inoculated with human MV4-11 cells (day 0), dosing began on day 17 of the study. Mice were dosed orally (PO) twice daily (bid) for the duration of the study with either Vehicle or 40 mg/kg VII at 5 mL/kg dose volume with a minimum separation of 8 hours between doses
This study was designed to assess the effects of various doses of VII on tumor engraftment, disease progression, severity, and overall survival in a murine intravenous MV4-11 leukemia model using NOD-SCID immunocompromised mice as a host with cyclophosphamide pretreatment to enhance tumor engraftment.
This study was conducted in an effort to confirm a previous efficacy data from study, but also to determine if 5 or 10 million cell inoculations would yield similar inconsistencies in tumor cell engraftment in the bone marrow and peripheral blood or alter the resultant mortality in these mice. Since a detectable level of engraftment in some animals was observed as early as 4 weeks post tumor cell injection in pilot studies and historical efficacy data had been determined with this regimen, animals were treated orally (PO) with vehicle or R945788 calcium salt at 40 mg/kg on a twice per day (bid) schedule, every day beginning approximately 2 weeks after tumor cell injection. Animals were continued on this regimen until euthanized or until the end of the study. In this experiment, all surviving mice were terminated when mice reached approximately 5 months of age (day 83 of the study) in order to limit the affects of the spontaneous thymoma development, which can be seen in NOD-SCID mice beginning at approximately 5-6 months of age.
On day 0 (Aug. 12, 2005), mice were i.v. injected with human MV4-11 cells in fresh medium at 5 or 10 million cells per mouse via the lateral tail vein. By day 3 post MV4-11 cell injection (on Aug. 15, 2005), one mouse was excluded due to early death from excessive body weight loss prior to randomization or treatment, potentially due to cyclophosphamide treatment. Remaining animals were randomized into treatment groups using body weights and dosing began on day 17 post cell injection (Aug. 29, 2005). Mean body weights of groups 1-4 were 20.66±0.43, 20.23±0.41, 20.18±0.54, and 20.88±0.59, respectively. Treatment groups are outlined in Table 1:
Overall disease severity was determined from a combination of body weight loss, clinical observations, necropsy findings, and quantitation of tumor cell engraftment in selected tissues. Mice were weighed 2-3 times weekly and percent weight change calculated. At the first indication of morbidity, hind limb paralysis with apparent wasting, severe cachexia or weight loss greater than 20%, involving lethargy, ruffled fur etc, as outlined in IACUC Protocol Rigel 6-2002 “Efficacy of Novel Chemotherapeutics in Human/Mouse Tumor Xenograft Models”, animals were removed from the study and euthanized. At sacrifice, animals were anesthetized with CO2 gas and blood was be collected by cardiocentesis. Blood from animal was transferred to K2EDTA coated Microtainer (lavendar top) tubes. Whole blood was placed indirectly on ice and processed for flow cytometric staining, as described in section below. To further assess disease severity, the location and description of palpable or suspected tumors on gross examination was carefully noted upon necropsy. […]

[1] = 5 million cells, 40 mg/kg, at sacrifice, listed as VII

COc1cc(Nc2ncc(F)c(Nc3ccc4c(n3)N(COP(=O)(O)O)C(=O)C(C)(C)O4)n2)cc(OC)c1OC [Compound 4, N4-(2,2-dimethyl-4-[(dihydrogenphosphonoxy)methyl]-3-oxo-5-pyrido[1,4]oxazin-6-yl)-5-fluoro-N2-(3,4,5-trimethoxyphenyl)-2,4-pyrimidinediamine]
Median DOD (day of death) (5E6 MV4-11 cells i.v., 40 mg/kg PO bid from day 17): 79 days | Hazard ratio (5E6 cells): 3.5 | % ILS (percent increase in life-span) (5E6 cells, 40 mg/kg PO bid, vs vehicle median DOD 54 days): 45% | animals necropsied showing visible or palpable tumors (5 million cells, 40 mg/kg): 3 out of 11 | animals terminated by study termination (5 million cells, 40 mg/kg): 7 of 12 | surviving mice at day 83 (5 million cells, 40 mg/kg PO bid, group of 12): 5 | % Reduction from Vehicle Control, Bone Marrow (5 million cells): 96% | % Reduction from Vehicle Control, Peripheral blood (5 million cells): 99% | Bone Marrow: Mean % Tumor Cells (CD33+HLA+) [1]: 1% and 1.03% | Peripheral Blood: Mean % Tumor Cells (CD33+HLA+) [1]: 0.6% and 0.59% | Hazard ratio (10E6 cells): 7.6 | animals necropsied showing visible or palpable tumors (10 million cells, 40 mg/kg): 7 out of 13 | animals terminated by study termination (10 million cells, 40 mg/kg): 4 out of 13 | surviving mice at day 83 (10 million cells, 40 mg/kg PO bid, group of 13): 9 | % Reduction from Vehicle Control, Bone Marrow (10 million cells): 59% | % Reduction from Vehicle Control, Peripheral blood (10 million cells, all samples): 80% | Peripheral Blood: Mean % Tumor Cells (CD33+HLA+) (10 million cells, 40 mg/kg, all samples): 10.32% | Bone Marrow: Mean % Tumor Cells (CD33+HLA+) (10 million cells, 40 mg/kg, at sacrifice, listed as VII): 5% and 5.21% | mice survived to Day 83 (10 million cells, 40 mg/kg, vehicle 0%): Over 50% | tolerability in NOD-SCID mice (mouse, in vivo): well tolerated
